Laboratory results reported in patent US20250186433A1, “ACSS2 INHIBITORS AND METHODS OF USE THEREOF” (EpiVario, Inc., priority 2017, published 2025).
Entries after “also recorded” stand apart in the source; their conditions may differ.

Assays:
ACSS2 [1] = target: T1, ACSS2 (Homo sapiens, UniProt Q9NR19); test: cell-based
Method: Testing the inhibitory effect of compounds on the cellular activity of ACSS2 was done by tracing the incorporation of ^13C from ^13C-acetate into fatty-acids in MDA-MB-468 cells under hypoxic conditions of 1% O2. The assay was done for 5 hours in DMEM with 5.5 mM glucose, 1 mM sodium Pyruvate, 0.65 mM Glutamine, 3.5 ug/ml Biotin, 1% dialyzed serum, 0.5 mM 13 C-acetate and with different concentrations of the inhibitors. At the end of the incubation, the cells were washed with cold PBS, harvested into glass tubes and undergo saponification. The level of ^13C incorporation into Palmitate was done by LC-MS analysis and the level of inhibition was calculated with PRISM software.

ACSS2 [2] = target: T1, ACSS2; test: biochemical
Method: The assay is based on a coupling reaction with Pyrophosphatase: ACSS2 is converting ATP+CoA+Acetate=>AMP+pyrophosphate+Acetyl-CoA (Ac-CoA). Pyrophosphatase converts pyrophosphate, a product of the ACSS2 reaction, to phosphate which can be detected by measuring the absorbance at 620 nm after incubation with the Biomol green reagent (Enzo life Science, BML-AK111).
At the end of the reaction, Biomol Green was added for 30 minutes at RT and the activity was measured by reading the absorbance at 620 nm.

AACS = target: T2, AACS (Homo sapiens, UniProt Q86V21); test: Acyl-CoA synthetases selectivity panel: AACS; type: biochemical; conditions: human recombinant protein, substrate acetoacetyl, AMP readout by HPLC; read-out: HPLC based activity assays IC50 (UM) AACS
T2 construct: purchased Cusabio, China
T2 sequence (Q86V21 1-672): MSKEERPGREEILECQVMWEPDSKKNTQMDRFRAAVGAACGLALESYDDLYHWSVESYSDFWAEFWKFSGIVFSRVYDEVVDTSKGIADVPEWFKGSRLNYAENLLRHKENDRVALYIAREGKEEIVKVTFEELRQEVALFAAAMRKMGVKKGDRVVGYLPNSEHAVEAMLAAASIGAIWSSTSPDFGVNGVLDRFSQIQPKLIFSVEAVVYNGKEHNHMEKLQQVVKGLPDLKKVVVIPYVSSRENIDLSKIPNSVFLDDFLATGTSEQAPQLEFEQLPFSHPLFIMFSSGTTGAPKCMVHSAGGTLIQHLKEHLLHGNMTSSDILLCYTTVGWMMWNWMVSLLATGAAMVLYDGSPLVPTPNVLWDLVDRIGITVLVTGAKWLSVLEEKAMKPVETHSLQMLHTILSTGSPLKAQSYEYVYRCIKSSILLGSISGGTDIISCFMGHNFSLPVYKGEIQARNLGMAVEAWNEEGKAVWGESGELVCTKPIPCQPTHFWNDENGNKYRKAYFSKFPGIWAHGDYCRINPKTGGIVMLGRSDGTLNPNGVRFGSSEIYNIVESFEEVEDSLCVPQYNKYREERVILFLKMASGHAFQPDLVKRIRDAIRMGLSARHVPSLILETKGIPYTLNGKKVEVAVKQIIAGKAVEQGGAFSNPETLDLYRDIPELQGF
Description: (§1) The biochemical assays for testing the selectivity of the compounds according to this invention, were done using human recombinant proteins (Cusabio, China). The readout of the assays was AMP levels, the […] of the reactions, by HPLC method. The acyl substrates (Sigma-Aldrich) of the assays were as followed: ACSS1/ACSS2—Acetate, AACS-Acetoacetyl, ACSF2—Octanoate and ACSL5—Palmitate. The protein in this panel include ACSS1, the closest homolog of ACSS2, in addition to representative short/medium/long chain acyl-CoA syntatases.

ACSS1 = target: T3, ACSS1 (Homo sapiens, UniProt Q9NUB1); test: Acyl-CoA synthetases selectivity panel: ACSS1; type: biochemical; conditions: human recombinant protein, substrate acetate, AMP readout by HPLC; read-out: HPLC based activity assays IC50 (UM) ACSS1
T3 construct: purchased Cusabio, China
T3 sequence (Q9NUB1 38-689): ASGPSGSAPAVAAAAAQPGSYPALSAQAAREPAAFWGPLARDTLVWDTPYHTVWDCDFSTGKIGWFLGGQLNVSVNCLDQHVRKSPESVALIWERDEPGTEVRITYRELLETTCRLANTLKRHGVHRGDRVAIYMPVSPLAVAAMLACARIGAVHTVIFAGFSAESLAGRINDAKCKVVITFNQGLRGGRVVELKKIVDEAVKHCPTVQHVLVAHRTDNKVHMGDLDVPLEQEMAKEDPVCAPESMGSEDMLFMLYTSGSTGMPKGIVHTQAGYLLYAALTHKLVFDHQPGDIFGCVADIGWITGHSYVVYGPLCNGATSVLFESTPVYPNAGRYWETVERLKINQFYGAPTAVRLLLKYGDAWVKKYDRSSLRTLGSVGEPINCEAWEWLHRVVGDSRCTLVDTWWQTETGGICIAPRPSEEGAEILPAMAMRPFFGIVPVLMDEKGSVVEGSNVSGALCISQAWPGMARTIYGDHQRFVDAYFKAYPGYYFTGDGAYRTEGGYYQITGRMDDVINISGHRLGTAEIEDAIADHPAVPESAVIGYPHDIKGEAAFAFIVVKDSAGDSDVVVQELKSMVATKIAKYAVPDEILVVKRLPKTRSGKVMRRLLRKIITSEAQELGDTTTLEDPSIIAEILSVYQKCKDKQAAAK
Description: as §1

ACSL5 = target: T4, ACSL5 (Homo sapiens, UniProt Q9ULC5); test: Acyl-CoA synthetases selectivity panel: ACSL5; type: biochemical; conditions: human recombinant protein, substrate palmitate, AMP readout by HPLC; read-out: HPLC based activity assays IC50 (UM) ACSL5
T4 construct: purchased Cusabio, China
T4 sequence (Q9ULC5 1-683): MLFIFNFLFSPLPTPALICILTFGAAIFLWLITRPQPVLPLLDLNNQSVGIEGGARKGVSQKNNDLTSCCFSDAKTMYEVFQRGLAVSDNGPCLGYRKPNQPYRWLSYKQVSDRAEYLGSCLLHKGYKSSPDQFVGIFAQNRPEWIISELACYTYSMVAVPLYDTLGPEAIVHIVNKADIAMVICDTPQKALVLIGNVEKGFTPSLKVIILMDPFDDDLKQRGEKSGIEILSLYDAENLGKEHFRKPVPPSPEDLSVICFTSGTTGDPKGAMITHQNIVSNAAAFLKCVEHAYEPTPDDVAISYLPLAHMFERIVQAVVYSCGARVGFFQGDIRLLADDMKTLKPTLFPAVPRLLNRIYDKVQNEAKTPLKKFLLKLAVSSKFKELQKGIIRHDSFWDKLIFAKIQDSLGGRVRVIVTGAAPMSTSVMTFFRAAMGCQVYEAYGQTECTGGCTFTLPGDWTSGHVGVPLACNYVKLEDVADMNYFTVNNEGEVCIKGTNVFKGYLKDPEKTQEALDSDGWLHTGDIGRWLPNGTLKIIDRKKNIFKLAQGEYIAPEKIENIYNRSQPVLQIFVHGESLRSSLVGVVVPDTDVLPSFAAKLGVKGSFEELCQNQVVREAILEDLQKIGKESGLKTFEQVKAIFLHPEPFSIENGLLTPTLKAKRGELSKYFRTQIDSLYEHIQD
Description: as §1

[3] = Pharmacokinetic profile in mice (oral and iv); type: in vivo; conditions: mouse, plasma
[4] = tested on: MDA-MB-468 breast cancer cells xenograft; test: In-vivo efficacy study in MDA-MB-468 breast cancer cells xenograft; conditions: 100 mg/kg orally once daily; female NMRI nude mice
Method: An in-vivo efficacy study was carried out by Charles-River Laboratories at the Freiburg, Germany site.
Tumor fragments from Breast cancer cell line MDA-MB-468 passaged as subcutaneous xenograft were subcutaneously implanted into female NMRI nude mice (Crl:NMRI-Foxnlnu). The animals were randomized into groups (n=10) when tumors volume reached 50 to 250 mm3. […] Body weights and tumor volume [mm3] by caliper were measured twice weekly.

ACSF2 = target: T5, ACSF2 (Homo sapiens, UniProt Q96CM8); test: Acyl-CoA synthetases selectivity panel: ACSF2; type: biochemical; conditions: human recombinant protein, substrate octanoate, AMP readout by HPLC; read-out: HPLC based activity assays IC50 (UM) ACSF2
T5 construct: purchased Cusabio, China
T5 sequence (Q96CM8 42-615): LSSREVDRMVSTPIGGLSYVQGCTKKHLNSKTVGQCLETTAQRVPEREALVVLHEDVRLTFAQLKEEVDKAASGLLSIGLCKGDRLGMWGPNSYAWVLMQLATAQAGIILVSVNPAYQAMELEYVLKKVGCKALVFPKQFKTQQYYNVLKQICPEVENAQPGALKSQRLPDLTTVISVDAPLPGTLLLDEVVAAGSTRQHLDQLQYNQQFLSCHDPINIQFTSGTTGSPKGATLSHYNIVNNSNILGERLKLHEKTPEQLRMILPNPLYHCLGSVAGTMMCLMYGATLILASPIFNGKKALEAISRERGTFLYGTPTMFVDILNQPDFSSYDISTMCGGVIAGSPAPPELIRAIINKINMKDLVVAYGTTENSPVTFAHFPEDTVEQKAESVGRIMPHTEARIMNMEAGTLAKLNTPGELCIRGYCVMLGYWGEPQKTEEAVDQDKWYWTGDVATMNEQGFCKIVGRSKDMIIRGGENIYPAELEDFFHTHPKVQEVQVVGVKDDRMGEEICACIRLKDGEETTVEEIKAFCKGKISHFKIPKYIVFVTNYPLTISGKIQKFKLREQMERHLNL
Description: as §1

ACSS2 [5] = target: T1, ACSS2; test: Acyl-CoA synthetases selectivity panel: ACSS2; type: biochemical; parameters: purchased Cusabio, China; conditions: human recombinant protein, substrate acetate, AMP readout by HPLC; read-out: HPLC based activity assays IC50 (UM) ACSS2
Description: as §1

HCT116 = test: In-vivo model that does not utilize acetate (HCT116); conditions: daily oral dosing

T1 sequence (Q9NR19 whole entry): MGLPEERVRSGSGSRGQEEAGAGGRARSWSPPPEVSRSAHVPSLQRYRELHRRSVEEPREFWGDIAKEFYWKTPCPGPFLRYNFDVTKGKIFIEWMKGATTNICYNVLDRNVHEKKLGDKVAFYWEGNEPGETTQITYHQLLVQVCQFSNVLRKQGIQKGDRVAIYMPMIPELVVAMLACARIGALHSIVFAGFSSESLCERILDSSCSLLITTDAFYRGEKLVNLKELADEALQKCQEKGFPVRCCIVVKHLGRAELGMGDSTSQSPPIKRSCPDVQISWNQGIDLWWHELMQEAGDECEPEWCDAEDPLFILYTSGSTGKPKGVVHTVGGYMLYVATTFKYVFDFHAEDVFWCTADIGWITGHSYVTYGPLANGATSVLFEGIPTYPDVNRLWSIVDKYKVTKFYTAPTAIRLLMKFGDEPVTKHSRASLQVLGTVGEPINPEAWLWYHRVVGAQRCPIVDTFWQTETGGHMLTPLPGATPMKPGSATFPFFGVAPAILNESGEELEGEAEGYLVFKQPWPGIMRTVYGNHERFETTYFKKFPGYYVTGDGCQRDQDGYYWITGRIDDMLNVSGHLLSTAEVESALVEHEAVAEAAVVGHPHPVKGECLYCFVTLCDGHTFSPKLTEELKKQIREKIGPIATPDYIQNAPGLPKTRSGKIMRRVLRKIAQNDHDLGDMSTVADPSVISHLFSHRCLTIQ

| IC50 (ACSS2 [1]) [nM] | IC50 (ACSS2 [2]) [nM] | IC50 (AACS) [nM] | IC50 (ACSS1) [nM] | IC50 (ACSL5) [nM] | bioavailability ([3]; oral 5 mg/kg, iv 1 mg/kg) [%] | clearance ([3]; oral 5 mg/kg, iv 1 mg/kg) [mL/min/kg] | half-life ([3]; po, single 5 mg/kg dose, read-out: t½ (converted)) [h] | IC50 (ACSF2) [nM] | IC50 (ACSS2 [5]) [nM] | Structure (SMILES) | tumor growth in MDA-MB-468 xenograft model [4] | efficacy in a model that does not utilize acetate (HCT116) (HCT116) |
| --- | --- | --- | --- | --- | --- | --- | --- | --- | --- | --- | --- | --- |
| > 100 | 0.01 to 6 | – | – | – | – | – | – | – | – | CC1=NN(c2ccc(OC(F)F)cc2)C(=O)C1C(=O)N[C@H]1CC[C@@H](O)[C@@H](O)C1 (stereo partly drawn) [compound 307, 1-(4-(difluoromethoxy)phenyl)-N-((1S,3S,4R)-3,4-dihydroxycyclohexyl)-3-methyl-5-oxo-4,5-dihydro-1H-pyrazole-4-carboxamide] | – | – |
| 0.5 to 50 | 0.01 to 6 | 171000 | 1000 to 10000 | > 100000 | 74 | 0.59 | 6.51 | 152000 | < 1 | COc1ccc(N2N=C(C)C(C(=O)Nc3cccc(C(C)(F)F)c3)C2=O)cc1 (centres unmarked) [compound 265, N-(3-(1,1-difluoroethyl)phenyl)-1-(4-methoxyphenyl)-3-methyl-5-oxo-4,5-dihydro-1H-pyrazole-4-carboxamide] | significant tumor growth delay; also recorded: inhibits tumor growth | no efficacy |
